Here are results for 17 molecules from patent publication US20020188022A1, “Methods for modulation, stimulation, and inhibition of glutamate reuptake” (Annovis. Inc., priority 2000, published 2002).

Read-outs that look alike come from different tables or passages of the source.

Data set [1] relates to Glial Glutamate Transporter (GLAST and GLT1). The data set can be described thus: Binding of [3H]-4MG to rat forebrain membrane homogenates in Na+-containing HEPES buffer. Conditions: FIG. 5. On the procedure: (§1) Forebrain tissue from female Sprague Dawley rats was homogenized in HEPES buffer containing Na^+, and membranes were washed twice in the same buffer. Binding experiments were also performed in this buffer. Initial studies determined appropriate parameters for time (15 minutes incubation at 4° C.) and drug concentration (20 nM [^3H]-4MG) to be used in subsequent experiments. Following incubation of [^3H]-4MG with or without other compounds, binding was terminated by rapid filtration through Whatman GF/B filter discs and washing 3 times with buffer using a Brandel cell harvester. Binding was determined by scintillation spectrometry. A full range of association, dissociation, saturation and inhibition studies was performed over varying incubation times (up to 60 min). Data were analysed using computer-assisted curve fitting. Values are expressed as mean of at least triplicate determinations and multiple experiments.
(§2) A full range of association, dissociation, saturation and inhibition studies was performed over varying incubation times (up to 60 min). Data were analysed using computer-assisted curve fitting. Values cited are expressed as mean of at least triplicate determinations and multiple experiments.

Data set [2] is described as follows: Hydrolysis of prodrug to the acid form. It counts as in vitro ADME. The text has this:
(§3) The ester, carbonate, and amine bond in any prodrug forms of compounds identified by the disclosed method can be readily cleaved in vivo. Therefore, prodrug compositions can be hydrolyzed to the corresponding acid forms in plasma.

Data set [3] can be described thus: Bioavailability and half-life of prodrug. It counts as in vivo. As to conditions: compared with 1.
Description: as §3

Data set [4] is described as follows: Analgesic effect test. It counts as in vivo. Conditions: compared with 1.
Description: as §3

The target in data set [5] is T1, Glial Glutamate Transporter (GLAST and GLT1).
T1 construct: Bmax; other: 20 nM [3H]-4MG, 4° C; KD
The data set can be described thus: Binding of [3H]-4MG to rat forebrain membrane homogenates in Na+-containing HEPES buffer. Conditions: for Displacement of 4MG binding: at or above 100 μM, FIG. 5. On the procedure:
as §1, §2

Where [6] appears, read: 20 nM [3H]-4MG, 4° C., read-out: Displacement of 4MG binding to rat brain membrane homogenates, IC50.

In the case of `N[C@@H](Cn1cc(I)c(=O)[nH]c1=O)C(=O)O` [IW, iodowillardine], the “Effect on 4MG and/or D-aspartate binding to GluTs” value (from here on “Effect … to GluTs”) in data set [1] is listed as “failed to affect”. Turning to `COC(=O)[C@H](C)C[C@H](N)C(=O)OC` [compound 2, (2S,4R)-4-methyl glutamic acid dimethyl ester], the “Hydrolysis to (2S,4R)-4-methyl glutamic acid (1)” value in data set [2] is listed as “readily hydrolyzed”. Also, in data set [3], the Bioavailability result is “enhanced bioavailability” and the Half-life result is “longer half-life”. In addition, in data set [4], the Analgesic effect result is reported as “analgesic effect similar to 1”. The IC50 is the point on the concentration scale where inhibition reaches its midpoint. Regarding `O=C(O)[C@H]1CN[C@H](C(=O)O)C1` [PDC, L-trans-pyrrolidine-2,4-dicarboxylate], the concentration for half-maximal inhibition (IC50) in data set [5] (setting [6]) was found to be 2.9 µM. Consider “L-anti-endo-3,4-methanopyrrolidine dicarboxylate [MPDC]”, for which the half-maximal inhibitory concentration (IC50) in data set [5] (setting [6]) was determined as 4 µM. As for `NCC(=O)O` [GLY, glycine], the “Effect … to GluTs” value in data set [1] is on record as “failed to affect”. `CC(C)(C)c1o[nH]c(=O)c1CC(N)C(=O)O` (stereo not drawn) [ATPA]: the “Effect … to GluTs” value in data set [1] is recorded as “failed to affect”. With `N[C@H](CC(=O)O)C(=O)O` [D-aspartate], the half-inhibitory concentration (IC50) in data set [5] (setting [6]) came out at 10.9 µM. Still for that read-out and setting: in the case of `N[C@H](C(=O)O)[C@H]1C[C@H]1C(=O)O` [CCG-III, (2S,3S,4R)-2-(carboxycyclopropyl)glycine] it was 1.2 µM; in that of `N[C@@H](CC(=O)O)C(=O)O` [L-aspartate], 7.5 µM.

Regarding `NCCCC(=O)O` [GABA, γ-aminobutyric acid], the “Effect … to GluTs” value in data set [1] is reported as “failed to affect”. For the molecule `Cc1onc(O)c1CC(N)C(=O)O` (stereo not drawn) [AMPA, α-amino-3-hydroxy-5-methyl-4-isoxazolepropionate], in data set [5], the “Displacement of 4MG binding” value is on record as “failed to significantly displace”. Regarding `N[C@@H](Cn1cc(F)c(=O)[nH]c1=O)C(=O)O` [FW, fluorowillardiine], the “Displacement of 4MG binding” value in data set [5] is listed as “failed to significantly displace”. Consider `C[C@H](C[C@H](N)C(=O)O)C(=O)O` [SYM 2081], for which the IC50 in data set [5] (Table 2, read-out: Inhibition of Binding of [3H]-4MG to Glial Glutamate Transporter, IC50) is 29 µM. In the case of `N[C@@H](COS(=O)(=O)O)C(=O)O` [SOS, L-serine-O-sulphate], in data set [5] (setting [6]), the IC50 was determined as 40 µM. Consider `CN[C@H](CC(=O)O)C(=O)O` [NMDA, N-methyl-D-aspartate], for which the “Displacement of 4MG binding” value in data set [5] is on record as “failed to significantly displace”. `N[C@@H](CCC(=O)O)C(=O)O` [glutamate, L-glutamic acid]: in data set [5] (setting [6]), the concentration for half-maximal inhibition (IC50) came to 6.1 µM. For orientation: Kd means the constant that tells how readily two partners part at equilibrium. As for `C[C@H](C[C@H](N)C(=O)O)C(=O)O` [4MG, (2S,4R)-4-methylglutamate], in data set [5], the Kd was found to be 5.4 µM. Moreover, in data set [5] (read-out: Displacement of 4MG binding to rat brain membrane homogenates, IC50), the IC50 was determined as 6.7 µM.
